The source of these data is ChEMBL document CHEMBL1129833, “N-Phthalimidoalkyl derivatives of 2-carbomethoxy-3-(4-iodophenyl)tropane (-CIT): Brain monoamine transporter affinity” (Bioorg Med Chem Lett, 1997).

Common to all, as to assay type: tissue-based
In test [1] the target is Sodium-dependent dopamine transporter (Rattus norvegicus, UniProt P23977). The test can be described thus: In vitro binding affinity of compound for Dopamine transporter with [3H]- GBR-12935 as radioligand in corpus striatum tissue from rat forebrain.
The target in test [2] is Norepinephrine transporter (Rattus norvegicus, UniProt Q9WTR4). The test can be described thus: In vitro binding affinity of compound for Norepinephrine (NE) transporter with [3H]- […] as radioligand in corpus striatum tissue from rat forebrain.
Test [3] addresses Sodium-dependent serotonin transporter (Rattus norvegicus, UniProt P31652). The test can be described thus: In vitro binding affinity of compound for Serotonin transporter with [3H]- paroxetine as radioligand in corpus striatum tissue from rat forebrain.

pKi: −log10 of the molar value.

Chain of Norepinephrine transporter (Q9WTR4 whole entry): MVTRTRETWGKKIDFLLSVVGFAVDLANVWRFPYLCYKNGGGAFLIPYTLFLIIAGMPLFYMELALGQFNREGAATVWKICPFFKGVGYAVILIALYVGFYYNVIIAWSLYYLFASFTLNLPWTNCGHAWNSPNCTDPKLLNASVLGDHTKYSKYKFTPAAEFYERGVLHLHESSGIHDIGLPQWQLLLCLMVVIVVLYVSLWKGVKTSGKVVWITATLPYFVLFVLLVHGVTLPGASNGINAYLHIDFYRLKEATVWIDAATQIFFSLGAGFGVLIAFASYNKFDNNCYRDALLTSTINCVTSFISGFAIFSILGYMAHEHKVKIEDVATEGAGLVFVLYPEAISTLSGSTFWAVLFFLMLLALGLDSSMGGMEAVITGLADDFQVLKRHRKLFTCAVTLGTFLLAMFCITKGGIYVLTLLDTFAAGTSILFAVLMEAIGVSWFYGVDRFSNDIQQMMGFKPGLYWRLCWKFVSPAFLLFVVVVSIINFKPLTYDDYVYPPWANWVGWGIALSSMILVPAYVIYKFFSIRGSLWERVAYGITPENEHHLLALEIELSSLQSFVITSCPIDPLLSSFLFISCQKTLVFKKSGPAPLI
Chain of Sodium-dependent dopamine transporter (P23977 whole entry): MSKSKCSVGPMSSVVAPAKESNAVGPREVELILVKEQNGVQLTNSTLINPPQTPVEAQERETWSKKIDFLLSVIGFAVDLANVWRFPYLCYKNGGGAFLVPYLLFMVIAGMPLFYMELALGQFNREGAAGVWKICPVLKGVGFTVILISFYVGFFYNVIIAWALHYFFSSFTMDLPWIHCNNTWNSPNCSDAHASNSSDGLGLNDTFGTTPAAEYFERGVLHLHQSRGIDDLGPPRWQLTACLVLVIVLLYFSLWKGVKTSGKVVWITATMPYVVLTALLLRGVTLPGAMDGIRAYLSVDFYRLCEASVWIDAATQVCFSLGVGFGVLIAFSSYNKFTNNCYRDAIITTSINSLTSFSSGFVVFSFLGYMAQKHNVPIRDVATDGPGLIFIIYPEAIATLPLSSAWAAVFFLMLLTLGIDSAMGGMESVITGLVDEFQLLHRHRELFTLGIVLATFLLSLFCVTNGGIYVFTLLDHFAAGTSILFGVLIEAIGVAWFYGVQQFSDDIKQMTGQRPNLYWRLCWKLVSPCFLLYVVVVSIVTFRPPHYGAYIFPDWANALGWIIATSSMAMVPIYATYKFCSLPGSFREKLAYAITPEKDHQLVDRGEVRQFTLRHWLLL
Chain of Sodium-dependent serotonin transporter (P31652 whole entry): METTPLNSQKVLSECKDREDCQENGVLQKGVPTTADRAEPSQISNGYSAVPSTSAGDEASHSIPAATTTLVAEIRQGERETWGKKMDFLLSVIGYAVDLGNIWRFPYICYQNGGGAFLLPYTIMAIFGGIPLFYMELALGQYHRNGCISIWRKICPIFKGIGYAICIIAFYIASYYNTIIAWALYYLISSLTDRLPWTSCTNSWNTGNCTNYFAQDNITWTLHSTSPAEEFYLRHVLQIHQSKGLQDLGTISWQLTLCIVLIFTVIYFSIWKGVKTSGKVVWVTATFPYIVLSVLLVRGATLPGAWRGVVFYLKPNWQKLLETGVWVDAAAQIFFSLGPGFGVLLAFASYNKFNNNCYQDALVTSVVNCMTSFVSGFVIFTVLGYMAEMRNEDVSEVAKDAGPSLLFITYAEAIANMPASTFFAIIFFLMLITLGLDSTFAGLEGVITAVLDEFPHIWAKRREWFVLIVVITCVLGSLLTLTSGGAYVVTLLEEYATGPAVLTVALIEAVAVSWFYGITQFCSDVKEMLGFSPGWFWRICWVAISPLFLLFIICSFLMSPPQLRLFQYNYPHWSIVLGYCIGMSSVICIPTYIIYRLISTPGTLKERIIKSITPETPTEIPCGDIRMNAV

Turning to `COC(=O)C1C2CC[C@H](C[C@@H]1c1ccc(I)cc1)N2CCCCCCCCN1C(=O)c2ccccc2C1=O` (stereo partly drawn), the pKi – broadly, the Ki on a negative log10 scale, so that one unit is a factor of ten – in test [1] is 8.53; in test [2], 7.12; in test [3], 9.70.

As for `COC(=O)C1C2CC[C@H](C[C@@H]1c1ccc(I)cc1)N2CCN1C(=O)c2ccccc2C1=O` (stereo partly drawn), the negative-log Ki (pKi) was 8.37 in test [1], 6.36 in test [2] and 9.08 in test [3].

`COC(=O)C1C2CC[C@H](C[C@@H]1c1ccc(I)cc1)N2C` (stereo partly drawn) showed a pKi in test [3] of 9.36.

For `COC(=O)C1C2CC[C@H](C[C@@H]1c1ccc(I)cc1)N2CCCCCN1C(=O)c2ccccc2C1=O` (stereo partly drawn), the pKi is 8.62 in test [1], 7.22 in test [2] and 9.47 in test [3].

As to `COC(=O)C1C2CC[C@@H](C[C@@H]1c1ccc(I)cc1)N2CCCCN1C(=O)c2ccccc2C1=O` (stereo partly drawn), the pKi is 8.62 in test [1], 6.72 in test [2] and 9.68 in test [3].
